This passage reports ΔTm results from ChEMBL document CHEMBL5308504, “Tm Shift (DSF) assay results for EUbOPEN Chemogenomics Library” (2023).

Structures are written as SMILES. Several values for one entry are separate records, joined by “and”; a condition that tells them apart may be missing. Equal entries are not always repeated.

One may read the ΔTm as the shift of the melting midpoint relative to a reference.

The target of assay [1] is T1, Peregrin (Homo sapiens) (UniProt P55201).
T1 sequence (whole entry): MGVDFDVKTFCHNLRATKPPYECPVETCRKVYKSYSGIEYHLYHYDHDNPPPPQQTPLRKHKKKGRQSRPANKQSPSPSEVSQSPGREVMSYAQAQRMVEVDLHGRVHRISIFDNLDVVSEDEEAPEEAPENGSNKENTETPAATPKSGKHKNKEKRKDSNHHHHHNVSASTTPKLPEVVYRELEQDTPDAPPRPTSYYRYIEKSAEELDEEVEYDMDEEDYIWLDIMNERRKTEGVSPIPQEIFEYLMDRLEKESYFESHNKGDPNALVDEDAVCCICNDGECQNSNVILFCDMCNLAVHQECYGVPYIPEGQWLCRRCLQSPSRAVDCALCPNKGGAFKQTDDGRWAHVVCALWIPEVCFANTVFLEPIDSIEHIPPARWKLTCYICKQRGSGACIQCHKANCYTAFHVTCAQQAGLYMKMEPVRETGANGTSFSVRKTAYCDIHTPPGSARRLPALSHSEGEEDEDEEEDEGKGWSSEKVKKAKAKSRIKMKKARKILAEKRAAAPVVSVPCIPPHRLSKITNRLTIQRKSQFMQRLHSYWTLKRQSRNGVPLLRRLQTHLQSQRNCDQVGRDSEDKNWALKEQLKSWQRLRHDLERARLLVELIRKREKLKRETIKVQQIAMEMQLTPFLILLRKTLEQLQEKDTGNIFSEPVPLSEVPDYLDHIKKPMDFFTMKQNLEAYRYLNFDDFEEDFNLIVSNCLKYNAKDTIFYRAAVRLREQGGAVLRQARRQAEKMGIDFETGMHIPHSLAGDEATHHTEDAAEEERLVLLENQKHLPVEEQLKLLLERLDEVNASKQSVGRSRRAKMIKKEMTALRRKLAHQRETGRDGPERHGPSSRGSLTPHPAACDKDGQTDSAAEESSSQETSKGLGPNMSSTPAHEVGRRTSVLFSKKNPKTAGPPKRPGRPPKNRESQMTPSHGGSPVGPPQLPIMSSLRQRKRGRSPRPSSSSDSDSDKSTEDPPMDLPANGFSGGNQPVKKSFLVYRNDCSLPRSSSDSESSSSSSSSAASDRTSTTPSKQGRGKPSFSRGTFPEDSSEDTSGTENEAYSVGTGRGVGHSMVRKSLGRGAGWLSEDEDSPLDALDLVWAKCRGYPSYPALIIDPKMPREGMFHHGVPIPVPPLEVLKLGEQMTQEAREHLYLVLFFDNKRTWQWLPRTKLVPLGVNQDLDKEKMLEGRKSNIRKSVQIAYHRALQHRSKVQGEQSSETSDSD
The following applies: Compound concentration 20.0 uM, Protein concentration 2.0 uM, Result type QC Liability.

For assay [2], the target named is Fibroblast growth factor receptor 3 (Homo sapiens) (UniProt P22607). Particulars: Compound concentration 20.0 uM, Protein concentration 2.0 uM, Result type QC Liability.
Sequence of Fibroblast growth factor receptor 3 (Homo sapiens) (P22607 23-806 limits assumed): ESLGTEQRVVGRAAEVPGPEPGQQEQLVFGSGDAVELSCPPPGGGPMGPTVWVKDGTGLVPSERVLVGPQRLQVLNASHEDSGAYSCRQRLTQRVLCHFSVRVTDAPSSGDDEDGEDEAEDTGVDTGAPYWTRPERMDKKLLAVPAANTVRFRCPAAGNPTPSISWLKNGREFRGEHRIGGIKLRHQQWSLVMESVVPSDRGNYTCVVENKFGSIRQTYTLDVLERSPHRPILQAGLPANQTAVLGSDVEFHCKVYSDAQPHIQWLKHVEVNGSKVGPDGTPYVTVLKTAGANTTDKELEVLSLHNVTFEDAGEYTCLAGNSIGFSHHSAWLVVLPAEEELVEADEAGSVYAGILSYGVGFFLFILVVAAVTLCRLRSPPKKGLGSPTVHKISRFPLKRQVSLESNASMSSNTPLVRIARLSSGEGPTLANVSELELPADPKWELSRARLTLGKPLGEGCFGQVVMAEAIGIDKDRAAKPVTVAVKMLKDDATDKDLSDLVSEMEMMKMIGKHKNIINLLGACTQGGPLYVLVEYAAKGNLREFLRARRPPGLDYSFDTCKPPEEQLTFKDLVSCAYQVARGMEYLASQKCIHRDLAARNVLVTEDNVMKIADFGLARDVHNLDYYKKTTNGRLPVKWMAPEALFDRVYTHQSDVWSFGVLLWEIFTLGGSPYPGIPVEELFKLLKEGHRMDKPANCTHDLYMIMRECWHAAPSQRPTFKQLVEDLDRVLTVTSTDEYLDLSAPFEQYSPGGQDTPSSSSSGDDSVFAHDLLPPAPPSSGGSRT
Description: Thermal Shift Assay. Domain: start/stop: P449-E759

As to `O=C(O)C[C@H]1CCn2c1c(Sc1ccc(Cl)cc1)c1ccc(F)cc12`, the ΔTm is -3.8 °C in assay [1] and -0.05 °C in assay [2].
Turning to `CCc1ncnc(N2CCN(C(C)=O)CC2)c1C#Cc1ccc(N)nc1`, the ΔTm in assay [1] is -1.29 °C; in assay [2] it was 0.7 °C.
In the case of `CCN(C)C(=O)c1ccc2c(c1)NC(=O)/C2=C(\NC1CCN(C)CC1)c1ccccc1`, the ΔTm is -1.76 °C in assay [1] and 0.47 °C in assay [2].
Take `Cc1cc(CN)cc(C)c1-c1ncn(C)c1-c1ccnc2cc(F)ccc12`: the ΔTm is -2.14 °C in assay [1] and 0.85 °C in assay [2].
For the molecule `Cc1[nH]c2c(N3CCCCC3)c(-c3ccccc3)nn2c(=O)c1-c1ccc(O)cc1`, the figures for the ΔTm in assay [1] and in assay [2] were -2.87 °C and 0.67 °C, respectively.
For `COc1ccc(OC(=O)N(CC(=O)O)Cc2ccc(OCCc3nc(-c4ccccc4)oc3C)cc2)cc1`, in that order: -1.99 °C and 0.89 °C.
As to `O=C(O)CCCCCC[C@@H]1C(=O)NC(=O)N1CCC(O)C1CCCCC1` (stereo not given in full), the thermal shift (ΔTm) in assay [1] is -2.88 °C; in assay [2], 0.47 °C.
As to `COc1cc(-c2cc3ncccc3c(O[C@H](C)[C@H]3CNC(=O)C3)n2)cc(OC)c1OC`, the ΔTm is -2.14 °C and -1.33 °C in assay [1]; 1.61 °C and 1.56 °C in assay [2].
On to `COc1ccccc1Nc1nc(-c2nn(Cc3c(F)cc(OCCCO)cc3F)c3ccccc23)ncc1OC`, for which the thermal shift (ΔTm) was -1.09 °C in assay [1] and 0.41 °C in assay [2].
Turning to `CC[C@@H](Nc1c(C#N)c(-c2ccc(-c3cccc(C)c3F)cc2)nc2cnccc12)C(=O)O`, the figures for the shift in melting temperature (ΔTm) in assay [1] and in assay [2] were -0.66 °C and 0 °C, respectively.
For `C1=Cc2ccccc2C(=C2CCN(CCCCc3nnn[nH]3)CC2)c2ccccc21`, in that order: -1.48 °C and 0.36 °C.
`CNc1nc(Nc2ccc(C(=O)N3CCOCC3)cc2OC)ncc1Cl`: the results for the ΔTm in assay [1] and in assay [2] were -1.86 °C and 0.95 °C, respectively.
Take `CO[C@H]1CC[C@H](N(c2cc(F)c(Oc3ncc(Cn4nccn4)cc3C(F)(F)F)cc2C(=O)O)C(=O)[C@H]2CC[C@H](C)CC2)CC1`: the ΔTm in assay [1] is -4.09 °C; in assay [2] it was 0.62 °C.
Take `Cc1cc(SCc2sc(-c3ccc(C(F)(F)F)cc3)nc2C)ccc1OCC(=O)O`: the ΔTm in assay [1] is -1.59 °C; in assay [2] it was 1.04 °C.
The like results for `CN1CCc2cc(Nc3ncc(C(F)(F)F)c(NCc4cc[nH]n4)n3)ccc2C1` were, in that order, -1.01 °C and 8.22 °C.
`CCc1c(-c2ccc3[nH]ncc3c2)cnc(N)c1-c1ccc(O)cc1`: the ΔTm in assay [1] was -1.61 °C; in assay [2] it was 2.78 °C.
For `Cc1cc(CN(CC(=O)Nc2ccc(Cl)cc2Cl)C2CCCCC2)ccc1OCC(=O)O`, in that order: -6.07 °C and -0.33 °C.
Take `O=C(O)CCCc1cc2cc(Cl)ccc2n1S(=O)(=O)c1ccc2ncsc2c1`: the ΔTm was -1.78 °C in assay [1] and 0.8 °C in assay [2].
`O=C(CCCCCCc1ccccc1)c1ncc(-c2ccccn2)o1`: the results for the ΔTm in assay [1] and in assay [2] were -3.08 °C and 0.46 °C, respectively.
For `CCN1CCN(Cc2ccc(C(=O)Nc3ccc(C)c(Oc4ccc5c(c4)CC(=O)N5)c3)cc2C(F)(F)F)CC1`, in that order: -1.47 °C and 3.22 °C.
For `CC1(C)CCC(CN2CCN(c3ccc(C(=O)NS(=O)(=O)c4ccc(NCC5CCOCC5)c([N+](=O)[O-])c4)c(Oc4cnc5[nH]ccc5c4)c3)CC2)=C(c2ccc(Cl)cc2)C1`, in that order: -1.4 °C and 1.11 °C.
With `O=C(CCSCc1ccco1)NNC(=O)N1Cc2ccccc2Oc2ccc(Cl)cc21`, the ΔTm in assay [1] is -3.17 °C; in assay [2], 0.24 °C.
For the molecule `CN(C)C(=O)Cn1cc(-c2nc(C3(c4ccc(-c5cnc(N)nc5)cc4)CC3)no2)cn1`, the ΔTm was -2.76 °C in assay [1] and 0.55 °C in assay [2].
Regarding `COc1cc(-c2cc3ncccc3c(OC[C@H]3CNC(=O)C3)n2)cc(OC)c1OC1CCOCC1`, the ΔTm in assay [1] was -1.09 °C; in assay [2] it was 1.16 °C.
Take `O=C(Cc1ccccc1)Nc1nnc(N2CC[C@@H]3[C@H]2CN3c2cccnn2)s1`: the ΔTm in assay [1] is -0.69 °C; in assay [2] it was 0.51 °C.
For the molecule `O=C(Nc1snnc1C(=O)Nc1ccc(N2CCCC2)cc1)c1cncc(C(F)(F)F)c1`, the ΔTm in assay [1] was 0.2 °C; in assay [2], 0.45 °C.
Consider `CCCCCCC(Sc1nc(Cl)cc(NCc2ccc(-c3ccccc3)cc2)n1)C(=O)O` (stereo not given), for which the thermal shift (ΔTm) was -6.38 °C in assay [1] and 0.79 °C in assay [2].
On to `Cc1nc2ccc(Oc3ccc(F)cc3)cc2c(=O)n1C[C@H]1CCCN(C(C)C)C1`, for which the figures for the ΔTm in assay [1] and in assay [2] were -2.47 °C and 0.96 °C, respectively.
In the case of `CCc1ccc(N(CC(C)C)S(=O)(=O)c2ccc(OCC3CCOCC3)c(CO)c2)cc1`, the shift in melting temperature (ΔTm) in assay [1] was -0.2 °C; in assay [2], 0.5 °C.
Turning to `Cc1cc(OC2CCS(=O)(=O)CC2)cc(C)c1-c1cccc(COc2ccc(C(=O)O)c(F)c2)c1`, the results for the ΔTm in assay [1] and in assay [2] were -2.62 °C and 1.28 °C, respectively.
For `Cn1nc(C(=O)NCc2ccc(C(=O)O)cc2)cc1-c1ccc2[nH]ccc2c1`, in that order: -1.95 °C and 0.9 °C.
Consider `CC(C)(O)[C@H]1CC[C@H](Nc2ccc3ncc(-c4cccc(C(F)(F)F)c4)n3n2)CC1`, for which the shift in melting temperature (ΔTm) in assay [1] came out at 3.48 °C; in assay [2], 0.8 °C.
For `CC(C)C(=O)N[C@@H]1CCN(C(=O)Nc2nc3c(s2)-c2nc(-c4ccccc4Cl)ncc2CC3)C1`, the ΔTm in assay [1] is -1.39 °C; in assay [2], 3.87 °C.
With `Nc1ncnc2c1ccn2[C@@H]1O[C@H]([C@@H](O)c2ccccc2)[C@@H](O)[C@H]1O`, the thermal shift (ΔTm) in assay [1] was -1.55 °C; in assay [2] it was 0.72 °C.
In the case of `O=C(Nc1cccc(Nc2nccc(Nc3cccc(C(F)(F)F)c3)n2)c1)C1CC1`, the thermal shift (ΔTm) was 0.79 °C in assay [1] and 3.3 °C in assay [2].
For `Cc1cc(OCc2nc3ccccc3s2)ccc1NC(=O)Nc1ccc(Cl)c(Cl)c1`, the ΔTm in assay [1] is -2.19 °C; in assay [2], 0.81 °C.
As for `C=CC[C@@H]1/C=C(\C)C[C@H](C)C[C@H](OC)[C@H]2O[C@@](O)(C(=O)C(=O)N3CCCC[C@H]3C(=O)O[C@H](/C(C)=C/[C@@H]3CC[C@@H](O)[C@H](OC)C3)[C@H](C)[C@@H](O)CC1=O)[C@H](C)C[C@@H]2OC`, the ΔTm was -3.28 °C in assay [1] and 0.4 °C in assay [2].
Take `COc1ccc(-c2cc3c(C)nc(N)nc3n([C@H]3CC[C@H](OCCO)CC3)c2=O)cn1`: the ΔTm in assay [1] amounted to 0.08 °C; in assay [2], 0.24 °C.
Regarding `Cc1cc(NC(=O)c2cccc(NC(=O)/C=C/CN(C)C)c2)ccc1Nc1nccc(-c2cccnc2)n1`, the thermal shift (ΔTm) in assay [1] is -1.22 °C; in assay [2], 1.04 °C.
For `COc1cc(-c2cncc(-c3ccc(N4CCN(C(C)C)CC4)cc3)c2C)cc(F)c1C(=O)N1CCCC1`, the ΔTm in assay [1] was -1.67 °C; in assay [2] it was 0.64 °C.
As for `CN(C)CCCN1c2ccccc2Sc2ccc(Cl)cc21`, the figures for the ΔTm in assay [1] and in assay [2] were -1.01 °C and 0.65 °C, respectively.
In the case of `CCOC(=O)CS(=O)(=O)c1ccc([C@@H](CO)NC(=O)c2cc3c(Cl)c(Cl)c(C)cc3n2C)cc1`, the ΔTm in assay [1] was -8.76 °C; in assay [2], 2.82 °C.
For `CN1C(=O)Cc2ccc(-c3ccc(C[C@@H](C#N)NC(=O)[C@@H]4N[C@H]5CC[C@@H]4C5)c(F)c3)cc21`, the shift in melting temperature (ΔTm) is 1.91 °C in assay [1] and 0.66 °C in assay [2].
Regarding `O=C(O)c1ccc(OCCCc2ccc(OCCCCOC3CCCCC3)cc2)c(C(=O)NC2CCCC(C(=O)O)C2)c1` (stereo not given), the ΔTm in assay [1] was -4.19 °C; in assay [2] it was 0.54 °C.
As for `CCNc1ccc(-c2nn(-c3ccccc3C)c3c2C(C)Cc2nc(NC(=O)OC)sc2-3)cn1` (stereo not given), the thermal shift (ΔTm) in assay [1] is -1.43 °C; in assay [2], 0.96 °C.
